Assays:
[1] = test system: maternal sera (antibodies); assay: ELISA peptide-binding of maternal sera (Example 6); set-up: species or system human; conditions: for Number of Non-Transmitters which bound to peptide / Percent of Non-Transmitters which bound to peptide: N = 12; for Number of Transmitters which bound to peptide / Percent of Transmitters which bound to peptide: N = 4
Summary of the method: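 HIV-1 envelope peptides averaging 16 amino acids, covering external and transmembrane glycoprotein, were probed by ELISA. Third-trimester maternal sera, classed as transmitter or non-transmitter by child diagnosis, were each run on at least 40 peptides. Values give percent of sera binding a peptide.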

[2] = test system: maternal HIV+ sera (antibodies); assay: RIA / ELISA binding of maternal HIV+ sera to gp120 and gp41 peptides (Example 3); set-up: species or system human
Summary of the method: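 Maternal sera, diluted 1:50 and 1:500, were bound overnight at 4°C to peptides immobilized at 10 μg/ml (pH 9.6 carbonate) and blocked with 1% BSA. Read-out was ¹²⁵I-labelled anti-human IgG counts or HRP-TMB OD450. Signal with peptide minus without was expressed relative to seronegative serum.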

[3] = Serum No. 1, Non-Transmission Group
[4] = Serum No. 2, Non-Transmission Group
[5] = Serum No. 3, Non-Transmission Group
[6] = Serum No. 4, Transmission Group
[7] = Serum No. 5, Transmission Group
[8] = Serum No. 6, Non-Transmission Group
[9] = Serum No. 7, Non-Transmission Group
[10] = Serum No. 8, Non-Transmission Group
[11] = Serum No. 9, Non-Transmission Group
[12] = Serum No. 10, Transmission Group
[13] = Serum No. 11, Non-Transmission Group
[14] = Serum No. 12, Non-Transmission Group
[15] = Serum No. 13, Transmission Group
[16] = Serum No. 14, Transmission Group
[17] = Serum No. 15, Transmission Group
[18] = Serum No. 16, Non-Transmission Group
[19] = Serum No. 17, Non-Transmission Group
[20] = Serum No. 18, Non-Transmission Group
[21] = Serum No. 19, Transmission Group
[22] = Serum No. 20, Non-Transmission Group

QNNLLRAIEAQQHLLQLTVWGI [Peptide 35]
Number of Non-Transmitters which bound to peptide [1]: 0 | Percent of Non-Transmitters which bound to peptide [1]: 0% | Number of Transmitters which bound to peptide [1]: 0 | Percent of Transmitters which bound to peptide [1]: 0% | Binding of maternal HIV+ serum to peptide (sera/NHS ratio) [2, 3]: - (specific OD450 or cpm of sera sample binding to peptide divided by the specific OD450 or cpm of NHS sample binding to peptide, which value is less than 2) | Binding of maternal HIV+ serum to peptide (sera/NHS ratio) [2, 4]: - (specific OD450 or cpm of sera sample binding to peptide divided by the specific OD450 or cpm of NHS sample binding to peptide, which value is less than 2) | Binding of maternal HIV+ serum to peptide (sera/NHS ratio) [2, 5]: + (which value is between 2 to 3) | Binding of maternal HIV+ serum to peptide (sera/NHS ratio) [2, 6]: - (specific OD450 or cpm of sera sample binding to peptide divided by the specific OD450 or cpm of NHS sample binding to peptide, which value is less than 2) | Binding of maternal HIV+ serum to peptide (sera/NHS ratio) [2, 7]: - (specific OD450 or cpm of sera sample binding to peptide divided by the specific OD450 or cpm of NHS sample binding to peptide, which value is less than 2) | Binding of maternal HIV+ serum to peptide (sera/NHS ratio) [2, 8]: - (specific OD450 or cpm of sera sample binding to peptide divided by the specific OD450 or cpm of NHS sample binding to peptide, which value is less than 2) | Binding of maternal HIV+ serum to peptide (sera/NHS ratio) [2, 9]: + (which value is between 2 to 3) | Binding of maternal HIV+ serum to peptide (sera/NHS ratio) [2, 10]: - (specific OD450 or cpm of sera sample binding to peptide divided by the specific OD450 or cpm of NHS sample binding to peptide, which value is less than 2) | Binding of maternal HIV+ serum to peptide (sera/NHS ratio) [2, 11]: - (specific OD450 or cpm of sera sample binding to peptide divided by the specific OD450 or cpm of NHS sample binding to peptide, which value is less than 2) | Binding of maternal HIV+ serum to peptide (sera/NHS ratio) [2, 12]: - (specific OD450 or cpm of sera sample binding to peptide divided by the specific OD450 or cpm of NHS sample binding to peptide, which value is less than 2) | Binding of maternal HIV+ serum to peptide (sera/NHS ratio) [2, 13]: - (specific OD450 or cpm of sera sample binding to peptide divided by the specific OD450 or cpm of NHS sample binding to peptide, which value is less than 2) | Binding of maternal HIV+ serum to peptide (sera/NHS ratio) [2, 14]: - (specific OD450 or cpm of sera sample binding to peptide divided by the specific OD450 or cpm of NHS sample binding to peptide, which value is less than 2) | Binding of maternal HIV+ serum to peptide (sera/NHS ratio) [2, 15]: - (specific OD450 or cpm of sera sample binding to peptide divided by the specific OD450 or cpm of NHS sample binding to peptide, which value is less than 2) | Binding of maternal HIV+ serum to peptide (sera/NHS ratio) [2, 16]: - (specific OD450 or cpm of sera sample binding to peptide divided by the specific OD450 or cpm of NHS sample binding to peptide, which value is less than 2) | Binding of maternal HIV+ serum to peptide (sera/NHS ratio) [2, 17]: - (specific OD450 or cpm of sera sample binding to peptide divided by the specific OD450 or cpm of NHS sample binding to peptide, which value is less than 2) | Binding of maternal HIV+ serum to peptide (sera/NHS ratio) [2, 18]: - (specific OD450 or cpm of sera sample binding to peptide divided by the specific OD450 or cpm of NHS sample binding to peptide, which value is less than 2) | Binding of maternal HIV+ serum to peptide (sera/NHS ratio) [2, 19]: - (specific OD450 or cpm of sera sample binding to peptide divided by the specific OD450 or cpm of NHS sample binding to peptide, which value is less than 2) | Binding of maternal HIV+ serum to peptide (sera/NHS ratio) [2, 20]: - (specific OD450 or cpm of sera sample binding to peptide divided by the specific OD450 or cpm of NHS sample binding to peptide, which value is less than 2) | Binding of maternal HIV+ serum to peptide (sera/NHS ratio) [2, 21]: - (specific OD450 or cpm of sera sample binding to peptide divided by the specific OD450 or cpm of NHS sample binding to peptide, which value is less than 2) | Binding of maternal HIV+ serum to peptide (sera/NHS ratio) [2, 22]: - (specific OD450 or cpm of sera sample binding to peptide divided by the specific OD450 or cpm of NHS sample binding to peptide, which value is less than 2)

RIQRGPGRAFVTIGK [p18p]
Number of Non-Transmitters which bound to peptide [1]: 3 | Percent of Non-Transmitters which bound to peptide [1]: 25% | Number of Transmitters which bound to peptide [1]: 0 | Percent of Transmitters which bound to peptide [1]: 0% | Percentage of sera samples demonstrating binding to peptide, non-transmitter ([2]; Non-transmitter group, n = 13): 30.7% | Binding of maternal HIV+ serum to peptide (sera/NHS ratio) [2, 3]: - (specific OD450 or cpm of sera sample binding to peptide divided by the specific OD450 or cpm of NHS sample binding to peptide, which value is less than 2) | Binding of maternal HIV+ serum to peptide (sera/NHS ratio) [2, 4]: - (specific OD450 or cpm of sera sample binding to peptide divided by the specific OD450 or cpm of NHS sample binding to peptide, which value is less than 2) | Binding of maternal HIV+ serum to peptide (sera/NHS ratio) [2, 5]: - (specific OD450 or cpm of sera sample binding to peptide divided by the specific OD450 or cpm of NHS sample binding to peptide, which value is less than 2) | Binding of maternal HIV+ serum to peptide (sera/NHS ratio) [2, 6]: - (specific OD450 or cpm of sera sample binding to peptide divided by the specific OD450 or cpm of NHS sample binding to peptide, which value is less than 2) | Binding of maternal HIV+ serum to peptide (sera/NHS ratio) [2, 7]: - (specific OD450 or cpm of sera sample binding to peptide divided by the specific OD450 or cpm of NHS sample binding to peptide, which value is less than 2) | Binding of maternal HIV+ serum to peptide (sera/NHS ratio) [2, 8]: - (specific OD450 or cpm of sera sample binding to peptide divided by the specific OD450 or cpm of NHS sample binding to peptide, which value is less than 2) | Binding of maternal HIV+ serum to peptide (sera/NHS ratio) [2, 9]: - (specific OD450 or cpm of sera sample binding to peptide divided by the specific OD450 or cpm of NHS sample binding to peptide, which value is less than 2) | Binding of maternal HIV+ serum to peptide (sera/NHS ratio) [2, 10]: - (specific OD450 or cpm of sera sample binding to peptide divided by the specific OD450 or cpm of NHS sample binding to peptide, which value is less than 2) | Binding of maternal HIV+ serum to peptide (sera/NHS ratio) [2, 11]: - (specific OD450 or cpm of sera sample binding to peptide divided by the specific OD450 or cpm of NHS sample binding to peptide, which value is less than 2) | Binding of maternal HIV+ serum to peptide (sera/NHS ratio) [2, 12]: - (specific OD450 or cpm of sera sample binding to peptide divided by the specific OD450 or cpm of NHS sample binding to peptide, which value is less than 2) | Binding of maternal HIV+ serum to peptide (sera/NHS ratio) [2, 13]: - (specific OD450 or cpm of sera sample binding to peptide divided by the specific OD450 or cpm of NHS sample binding to peptide, which value is less than 2) | Binding of maternal HIV+ serum to peptide (sera/NHS ratio) [2, 14]: ++ (which value is greater than 3) | Binding of maternal HIV+ serum to peptide (sera/NHS ratio) [2, 15]: ++ (which value is greater than 3) | Binding of maternal HIV+ serum to peptide (sera/NHS ratio) [2, 16]: ++ (which value is greater than 3) | Binding of maternal HIV+ serum to peptide (sera/NHS ratio) [2, 17]: ++ (which value is greater than 3) | Binding of maternal HIV+ serum to peptide (sera/NHS ratio) [2, 18]: + (which value is between 2 to 3) | Binding of maternal HIV+ serum to peptide (sera/NHS ratio) [2, 19]: ++ (which value is greater than 3) | Binding of maternal HIV+ serum to peptide (sera/NHS ratio) [2, 20]: - (specific OD450 or cpm of sera sample binding to peptide divided by the specific OD450 or cpm of NHS sample binding to peptide, which value is less than 2) | Binding of maternal HIV+ serum to peptide (sera/NHS ratio) [2, 21]: - (specific OD450 or cpm of sera sample binding to peptide divided by the specific OD450 or cpm of NHS sample binding to peptide, which value is less than 2) | Binding of maternal HIV+ serum to peptide (sera/NHS ratio) [2, 22]: + (which value is between 2 to 3) | Percentage of sera samples demonstrating binding to peptide, transmitter ([2]; Transmitter / transmission group, n = 7): 42.8% | Percent of the maternal serum samples that bound to the peptide ([2]; all 20 samples): 35%
